Data from US4731109A, “Herbicidal 2-haloacetanilides” (Monsanto Company, priority 1982, dated 1988).
Where two headings read alike, the source gives them in different places.

Legend:
Assay type in all cases: in vivo
[1] = test system: Quackgrass; assay: Greenhouse pre-emergence GR15/GR85 selectivity test; conditions: Table IV
[2] = test system: Yellow Nutsedge; assay: as above; conditions: Table IV
[3] = test system: redroot pigweed; assay: as above; conditions: Table XV; for selectivity factor (GR15/GR85): in rape
How it was run: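 Pre-emergence soil-incorporation test: seeded pans were covered with topsoil mixed with active ingredient (in solvent or as wettable powder), overhead-irrigated (0.64 cm) or not, then subirrigated. Plants were scored about 2-3 weeks after treatment. GR15/GR85 rates are in kg/ha, and selectivity factor is crop GR15 divided by weed GR85.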

[4] = test system: lima beans; assay: as above; conditions: Table XVI
Text: (§1) A good grade of top soil is placed in aluminum pans and compacted to a depth of three-eighths to one-half inch from the top of the pan. On the top of the soil is placed a number of seeds or vegetative propagules of various plant species. The soil required to level fill the pans after seeding or adding vegetative propagules is weighed into a pan. The soil and a known amount of the active ingredient applied in a solvent or as a wettable powder suspension are thoroughly mixed, and used to cover the prepared pans. After treatment, the pans are given an initial overhead irrigation of eater, equivalent to one-fourth inch (0.64 cm) rainfall, then watered by subirrigation as need to give adequate moisture for germination and growth. As an alternative procedure, the overhead irrigation may be omitted. Observations are made about 2-3 weeks after seeding and treatment.
(§2) In the discussion and tables of data below, reference is made to herbicide application rates symbolized as "GR15 " and "GR85 "; these rates are given in kilograms per hectare (kg/ha) which are convertible into pounds per acre (lbs/A) by dividing the kg/ha rate by 1.12.
(§3) A further guide to the effectiveness of a chemical as a selective herbicide is the "selectivity factor" ("SF") for a herbicide in given crops and weeds. The selectivity factor is a measure of the relative degree of crop safety and weed injury and is expressed in terms of the GR15 /GR85 ratio, i.e., the GR15 rate for the crop divided by the GR85 rate for the weed, both rates in kg/ha (lb/A). In the tables below, selectivity factors are shown in parenthesis following the GR85 rate for each weed; the symbol "NS" indicates "non-selective". Marginal or undetermined selectivity is indicated by a dash (--).
(§4) Additionally, pre-emergence herbicidal data from other tests have established that compounds according to this invention also selectively suppress quackgrass, yellow nutsedge and/or other weeds in one or more of the crops cotton, peanuts, bush beans and/or rape. For example, in Table VI are presented data showing the herbicidal selectivity of the compounds of Examples 1 and 2 against quackgrass in rape and snap beans. Unless otherwise noted; greenhouse tests in Table VI and in other tables below involved herbicide treatments by soil incorporation and an initial overhead irrigation followed by subirrigation as described above.
(§5) Additional greenhouse tests were made to test certain compounds of this invention against a plurality of problem weeds in peanuts and lima beans; except for fall panicum, the test weeds are particularly resistant weeds; the test data is set forth in Table XVI.
(§6) In Table XVI, the selectivity factors for the test compounds for each weed in lima beans is shown as the first or upper value in parenthesis and the selectivity factors for each weed in peanuts is shown as the second or lower value in parenthesis for each compound. For example, the selectivity factor for the compound of Example 3 for seedling johnsongrass in lima beans is 2.1 and in peanuts, >4.9; the selectivity factor for Texas panicum in lima beans is 1.1 and in peanuts, >2.6, etc.

[5] = test system: peanuts; assay: as above; conditions: Table XVI
Text: as §1, §2, §3, §4, §5, §6

[6] = test system: Barnyardgrass; assay: Resistance to leaching and resulting herbicidal efficacy; conditions: for inhibition at 140 g/ha / inhibition at 560 g/ha / inhibition at 2200 g/ha / inhibition at 2360 g/ha: Echinochloa crus-galli, read-out: Percent Inhibition
Description: Laboratory tests were conducted to determine the resistance of herbicides according to this invention to leaching into the soil and resulting herbicidal efficacy. […] The pots containing the treated soil were subjected to leaching by placing on a turntable which rotated under two nozzle tips of a water container calibrated to deliver one inch (2.5 cm) of water per hour simulating rainfall. Leaching rates were adjusted by varying the amount of time on the turntable. Water was delivered to the soil in the pots and allowed to percolate through the filter paper and drainage holes. The pots were then allowed to sit for three days at ambient room temperature. The treated soil in the pots was then removed, crumbled and placed as a surface layer on top of other pots containing the above soils seeded with barnyardgrass seeds. The pots were then placed on greenhouse benches, sub-irrigated and allowed to grow for 2-3 weeks. Visual ratings of percent growth inhibition compared to control (untreated) pots and fresh weights for barnyardgrass were recorded; the data from the control represents six replications and that for the test compounds three replications; test data are shown in Table XVIII.

[7] = quackgrass in corn, Replicate #1
[8] = quackgrass in corn, Replicate #2
[9] = quackgrass in soybeans, Replicate #1
[10] = quackgrass in soybeans, Replicate #2
[11] = yellow nutsedge in corn, Replicate #1
[12] = yellow nutsedge in corn, Replicate #2
[13] = yellow nutsedge in soybeans, Replicate #1
[14] = yellow nutsedge in soybeans, Replicate #2
[15] = Drummer silt clay, 0.14 Kg/Ha, rain 0 cm
[16] = Drummer silt clay, 0.14 Kg/Ha, rain 1.27 cm
[17] = Drummer silt clay, 0.14 Kg/Ha, rain 5.08 cm
[18] = Drummer silt clay, 0.56 Kg/Ha, rain 0 cm
[19] = Drummer silt clay, 0.56 Kg/Ha, rain 1.27 cm
[20] = Drummer silt clay, 0.56 Kg/Ha, rain 5.08 cm
[21] = Drummer silt clay, 0.56 Kg/Ha, rain 10.16 cm
[22] = Ray silt loam, 0.14 Kg/Ha, rain 0 cm
[23] = Ray silt loam, 0.14 Kg/Ha, rain 1.27 cm
[24] = Ray silt loam, 0.14 Kg/Ha, rain 5.08 cm
[25] = Ray silt loam, 0.14 Kg/Ha, rain 10.61 cm
[26] = Ray silt loam, 0.56 Kg/Ha, rain 0 cm
[27] = Ray silt loam, 0.56 Kg/Ha, rain 1.27 cm
[28] = Ray silt loam, 0.56 Kg/Ha, rain 5.08 cm
[29] = Ray silt loam, 0.56 Kg/Ha, rain 10.16 cm
[30] = Ray silt loam, 2.2 Kg/Ha, rain 0 cm
[31] = Ray silt loam, 2.2 Kg/Ha, rain 1.27 cm
[32] = Ray silt loam, 2.2 Kg/Ha, rain 5.08 cm
[33] = Ray silt loam, 2.2 Kg/Ha, rain 10.16 cm
[34] = Ray silt loam, 2.36 Kg/Ha, rain 0 cm
[35] = Ray silt loam, 2.36 Kg/Ha, rain 1.27 cm
[36] = Ray silt loam, 2.36 Kg/Ha, rain 5.08 cm
[37] = Ray silt loam, 2.36 Kg/Ha, rain 10.16 cm
[38] = Ray silt loam, 0.14 Kg/Ha, rain 10.16 cm

Compound: Cc1cccc(C(F)(F)F)c1N(COC(C)C)C(=O)CCl [Example 4, N--(isopropoxymethyl)-2'-trifluoromethyl-6'-methyl-2-chloroacetanilide]
- GR85 ([1]; Replicate #1): 0.33 Kg/Ha
- GR85 ([1]; Replicate #2): 0.18 Kg/Ha
- selectivity factor (GR15/GR85) [1, 7]: 5
- selectivity factor (GR15/GR85) [1, 8]: 11
- selectivity factor (GR15/GR85) [1, 9]: 3
- selectivity factor (GR15/GR85) [1, 10]: 9.5
- GR85 ([2]; Replicate #1): 0.28 Kg/Ha
- GR85 ([2]; Replicate #2): 0.22 Kg/Ha
- selectivity factor (GR15/GR85) [2, 11]: 6
- selectivity factor (GR15/GR85) [2, 12]: 8.5
- selectivity factor (GR15/GR85) [2, 13]: 4
- selectivity factor (GR15/GR85) [2, 14]: 7.5
- GR85 Rate [3]: 0.50 Kg/Ha
- selectivity factor (GR15/GR85) [3]: > 2.2
- GR15 Rate [4]: > 1.12 Kg/Ha
- GR15 Rate [5]: 0.98 Kg/Ha
- inhibition at 140 g/ha [6, 15]: 70%
- inhibition at 140 g/ha [6, 16]: 96%
- inhibition at 140 g/ha [6, 17]: 85%
- inhibition at 560 g/ha [6, 18]: 100%
- inhibition at 560 g/ha [6, 19]: 100%
- inhibition at 560 g/ha [6, 20]: 100%
- inhibition at 560 g/ha [6, 21]: 96%
- inhibition at 2200 g/ha ([6]; Drummer silt clay, 2.2 Kg/Ha, rain 0 cm): 100%
- inhibition at 2200 g/ha ([6]; Drummer silt clay, 2.2 Kg/Ha, rain 1.27 cm): 100%
- inhibition at 2200 g/ha ([6]; Drummer silt clay, 2.2 Kg/Ha, rain 5.08 cm): 100%
- inhibition at 2200 g/ha ([6]; Drummer silt clay, 2.2 Kg/Ha, rain 10.16 cm): 100%
- inhibition at 140 g/ha [6, 22]: 98%
- inhibition at 140 g/ha [6, 23]: 90%
- inhibition at 140 g/ha [6, 24]: 38%
- inhibition at 140 g/ha [6, 25]: 12%
- inhibition at 560 g/ha [6, 26]: 99%
- inhibition at 560 g/ha [6, 27]: 100%
- inhibition at 560 g/ha [6, 28]: 89%
- inhibition at 560 g/ha [6, 29]: 17%
- inhibition at 2200 g/ha [6, 30]: 100%
- inhibition at 2200 g/ha [6, 31]: 100%
- inhibition at 2200 g/ha [6, 32]: 92%
- inhibition at 2200 g/ha [6, 33]: 71%
- inhibition at 140 g/ha ([6]; Drummer silt clay, 0.14 Kg/Ha, rain 10.61 cm): 47%
- Fresh Weight [6, 22]: 0.01 Grams
- Fresh Weight [6, 23]: 0.41 Grams
- Fresh Weight [6, 24]: 2.77 Grams
- Fresh Weight [6, 25]: 3.62 Grams
- Fresh Weight [6, 26]: 0.02 Grams
- Fresh Weight [6, 27]: 0 Grams
- Fresh Weight [6, 28]: 0.44 Grams
- Fresh Weight [6, 29]: 3.41 Grams
- Fresh Weight [6, 30]: 0 Grams
- Fresh Weight [6, 31]: 0 Grams
- Fresh Weight [6, 32]: 0.31 Grams
- Fresh Weight [6, 33]: 1.18 Grams

Compound: CCCOCN(C(=O)CCl)c1c(C)cccc1C(F)(F)F [Example 3, N--(n-propoxymethyl)-2'-trifluoromethyl-6'-methyl-2-chloroacetanilide]
- GR85 ([1]; Replicate #1): 0.12 Kg/Ha
- GR85 ([1]; Replicate #2): 0.13 Kg/Ha
- selectivity factor (GR15/GR85) [1, 7]: 6.5
- selectivity factor (GR15/GR85) [1, 8]: 5.5
- selectivity factor (GR15/GR85) [1, 9]: 9
- selectivity factor (GR15/GR85) [1, 10]: 8.5
- GR85 ([2]; Replicate #1): 0.11 Kg/Ha
- GR85 ([2]; Replicate #2): 0.21 Kg/Ha
- selectivity factor (GR15/GR85) [2, 11]: 7
- selectivity factor (GR15/GR85) [2, 12]: 3.5
- selectivity factor (GR15/GR85) [2, 13]: 10
- selectivity factor (GR15/GR85) [2, 14]: 5
- GR85 Rate [3]: 0.39 Kg/Ha
- selectivity factor (GR15/GR85) [3]: 2.3
- GR15 Rate [4]: 0.49 Kg/Ha
- GR15 Rate [5]: > 1.12 Kg/Ha
- inhibition at 140 g/ha [6, 15]: 81%
- inhibition at 140 g/ha [6, 16]: 99%
- inhibition at 140 g/ha [6, 17]: 94%
- inhibition at 140 g/ha ([6]; Drummer silt clay, 0.14 Kg/Ha, rain 10.16 cm): 54%
- inhibition at 560 g/ha [6, 18]: 100%
- inhibition at 560 g/ha [6, 19]: 100%
- inhibition at 560 g/ha [6, 20]: 100%
- inhibition at 560 g/ha [6, 21]: 100%
- inhibition at 2360 g/ha ([6]; Drummer silt clay, 2.36 Kg/Ha, rain 0 cm): 100%
- inhibition at 2360 g/ha ([6]; Drummer silt clay, 2.36 Kg/Ha, rain 1.27 cm): 100%
- inhibition at 2360 g/ha ([6]; Drummer silt clay, 2.36 Kg/Ha, rain 5.08 cm): 100%
- inhibition at 2360 g/ha ([6]; Drummer silt clay, 2.36 Kg/Ha, rain 10.16 cm): 100%
- inhibition at 140 g/ha [6, 22]: 99%
- inhibition at 140 g/ha [6, 23]: 95%
- inhibition at 140 g/ha [6, 24]: 63%
- inhibition at 560 g/ha [6, 26]: 100%
- inhibition at 560 g/ha [6, 27]: 100%
- inhibition at 560 g/ha [6, 28]: 94%
- inhibition at 560 g/ha [6, 29]: 52%
- inhibition at 2360 g/ha [6, 34]: 100%
- inhibition at 2360 g/ha [6, 35]: 100%
- inhibition at 2360 g/ha [6, 36]: 100%
- inhibition at 2360 g/ha [6, 37]: 95%
- inhibition at 140 g/ha [6, 38]: 14%
- Fresh Weight [6, 22]: 0.05 Grams
- Fresh Weight [6, 23]: 0.22 Grams
- Fresh Weight [6, 24]: 1.53 Grams
- Fresh Weight [6, 38]: 3.51 Grams
- Fresh Weight [6, 26]: 0 Grams
- Fresh Weight [6, 27]: 0 Grams
- Fresh Weight [6, 28]: 0.24 Grams
- Fresh Weight [6, 29]: 1.97 Grams
- Fresh Weight [6, 34]: 0 Grams
- Fresh Weight [6, 35]: 0 Grams
- Fresh Weight [6, 36]: 0 Grams
- Fresh Weight [6, 37]: 0.22 Grams
